In patent US20070105877A1, “Pyrazolopyrimidines” (priority 2003, published 2007) one finds IC50 data, which are given here for 18 molecules.

The structures appear in SMILES notation.

For this experiment, the target named is PDE-5 (UniProt O76074). Nature of the experiment: In vitro PDE inhibitory activity against PDE5 (batch method or scintillation proximity assay). To be noted: representative preferred compounds. It is filed as biochemical, human or rabbit. The source says:
The compounds of the invention are inhibitors of cyclic guanylate monophosphate (cGMP)-specific phosphodiesterase type 5 (PDE-5 inhibitors).
In particular, cGMP-specific PDE5 and cGMP-inhibited cAMP PDE3 can be obtained from human corpus cavernosum tissue, human platelets or rabbit platelets; cGMP-stimulated PDE2 was obtained from human corpus cavernosum; calcium/calmodulin (Ca/CAM)-dependent PDE1 from human cardiac ventricle; cAMP-specific PDE4 from human skeletal muscle; and photoreceptor PDE6 from bovine retina. Phosphodiesterases 7-11 can be generated from full length human recombinant clones transfected into SF9 cells.
In summary, for the scintillation proximity assay the effect of PDE inhibitors was investigated by assaying a fixed amount of enzyme in the presence of varying inhibitor concentrations and low substrate, (cGMP or cAMP in a 3:1 ratio unlabelled to [^3H]-labeled at a concentration of ˜⅓ Km or less) such that IC50≅Kl. The final assay volume was made up to 100 μl with assay buffer [20 mM Tris-HCl pH 7.4, 5 mM MgCl2, 1 mg/ml bovine serum albumin]. Reactions were initiated with enzyme, incubated for 30-60 min at 30° C. to give <30% substrate turnover and terminated with 50 μl yttrium silicate SPA beads (containing 3 mM of the respective unlabelled cyclic nucleotide for PDEs 9 and 11).
(SPA uses beads or plates that emit light when radiolabelled molecules are held near them.)
Broadly, the IC50 is the concentration needed to halve the response being measured. Regarding `CCNC(=O)c1nn(CCOCC)c2c(Nc3cc(C)ccn3)nc(NCC)nc12` [Example 8, 1-(2-ethoxyethyl)-N-ethyl-5-(ethylamino)-7-(4-methylpyridin-2-ylamino)-1H-pyrazolo[4,3-d]pyrimidine-3-carboxamide], the IC50 was determined as 333 pM. That is a sub-nanomolar value. `CCOCCn1nc(C(=O)NC)c2nc(N(C)C)nc(Nc3cc(C)ccn3)c21` [Example 14, 5-(dimethylamino)-1-(2-ethoxyethyl)-N-methyl-7-(4-methylpyridin-2-ylamino)-1H-pyrazolo[4,3-d]pyrimidine-3-carboxamide] yielded an IC50 of 260 pM.

Take `CCOCCn1nc(C(=O)NCCNC)c2nc(N(C)C)nc(Nc3cc(C)ccn3)c21` [Example 16]: half-maximal inhibition (IC50) was put at 400 pM. The same measure for `CCOCCn1nc(C(=O)NCCN(C)C)c2nc(N(C)C)nc(Nc3cc(C)ccn3)c21` [Example 17, 5-(dimethylamino)-N-(2-(dimethylamino)ethyl)-1-(2-ethoxyethyl)-7-(4-methylpyridin-2-ylamino)-1H-pyrazolo[4,3-d]pyrimidine-3-carboxamide]: 240 pM. For `CCOCCn1nc(C(=O)NC2CCNCC2)c2nc(N(C)C)nc(Nc3cc(C)ccn3)c21` [Example 18], the midpoint of inhibition, the IC50, lay at 60 pM. The same measure for `CCOCCn1nc(C(=O)NCCOC)c2nc(N(C)C)nc(Nc3cc(C)ccn3)c21` [Example 19, 5-(dimethylamino)-1-(2-ethoxyethyl)-N-(2-methoxyethyl)-7-(4-methylpyridin-2-yl-amino)-1H-pyrazolo[4,3-d]pyrimidine-3-carboxamide]: 90 pM; for `CCOCCn1nc(C(=O)N[C@H](C)C(=O)O)c2nc(N(C)C)nc(Nc3cc(C)ccn3)c21` [Example 22, (2R)-2-{[5-(dimethylamino)-1-(2-ethoxyethyl)-7-(4-methylpyridin-2-ylamino)-1H-pyrazolo[4,3-d]pyrimidine-3-carbonyl]amino}propionic acid]: 20 pM.

The molecule `CCOCCn1nc(C(=O)NCCC(=O)O)c2nc(N(C)C)nc(Nc3cc(C)ccn3)c21` [Example 23, 3-{[5-(dimethylamino)-1-(2-ethoxyethyl)-7-(4-methylpyridin-2-ylamino)-1H-pyrazolo[4,3-d]pyrimidine-3-carbonyl]amino}propionic acid] registered an IC50 of 40 pM.

In turn, `CCOCCn1nc(C(=O)NC)c2nc(N3CCN[C@H](C)C3)nc(Nc3cc(C)ccn3)c21` [Example 30, 1-(2-ethoxyethyl)-N-methyl-5-((3R)-3-methylpiperazin-1-yl)-7-(4-methylpyridin-2-yl-amino)-1H-pyrazolo[4,3-d]pyrimidine-3-carboxamide] came in with an IC50 of 1650 pM. The value for `CCNC(=O)c1nn(CCOCC)c2c(Nc3cc(C)ccn3)nc(N3CCN[C@H](C)C3)nc12` [Example 32] was 730 pM; that for `CCNc1nc(Nc2cc(C)ccn2)c2c(n1)c(C(=O)NC)nn2CCOCC` [Example 50, 1-(2-Ethoxyethyl)-5-(ethylamino)-N-methyl-7-(4-methylpyridin-2-ylamino)-1H-Pyrazolo[4,3-d]pyrimidine-3-carboxamide] was 1310 pM. The same measure for `CCOCCn1nc(C(=O)NCCOC)c2nc(NC)nc(Nc3cc(C)ccn3)c21` [Example 56, 1-(2-ethoxyethyl)-N-(2-methoxyethyl)-5-(methylamino)-7-(4-methylpyridin-2-ylamino)-1H-pyrazolo[4,3-d]pyrimidine-3-carboxamide]: 1630 pM.

`CCOCCn1nc(C(=O)NCCO)c2nc(N(C)C)nc(Nc3cc(C)ccn3)c21` [Example 58, 5-(dimethylamino)-1-(2-ethoxyethyl)-N-(2-hydroxyethyl)-7-(4-methylpyridin-2-yl-amino)-1H-pyrazolo[4,3-d]pyrimidine-3-carboxamide] came in with an IC50 of 130 pM.

`CCNc1nc(Nc2cc(C)ccn2)c2c(n1)c(C(=O)NCCOC)nn2CCOCC` [Example 60, 1-(2-ethoxyethyl)-5-(ethylamino)-N-(2-methoxyethyl)-7-(4-methylpyridin-2-ylamino)-1H-pyrazolo[4,3-d]pyrimidine-3-carboxamide] had an IC50 of 570 pM. The same measure for `CCOCCn1nc(C(=O)NC)c2nc(N(C)CCO)nc(Nc3cc(C)ccn3)c21` [Example 61]: 120 pM; for `CCOCCn1nc(C(=O)NC)c2nc(NCCOC)nc(Nc3cc(C)ccn3)c21` [Example 62, 1-(2-ethoxyethyl)-5-((2-methoxyethyl)amino)-N-methyl-7-(4-methylpyridin-2-ylamino)-1H-pyrazolo[4,3-d]pyrimidine-3-carboxamide]: 1880 pM. The same measure for `CCOCCn1nc(C(=O)NC)c2nc(N3CCN[C@H](C)C3)nc(NC3CCCCC3)c21` [Example 71, 7-(cyclohexylamino)-1-(2-ethoxyethyl)-N-methyl-5-((3R)-3-methylpiperazin-1-yl)-1H-pyrazolo[4,3-d]pyrimidine-3-carboxamide]: 2950 pM; for `CCOCCn1nc(C(=O)NC)c2nc(N(C)[C@H]3CCN(C)C3)nc(Nc3cc(C)ccn3)c21` [Example 73, 1-(2-Ethoxyethyl)-N-methyl-5-[N-methyl-N-((3S)-1-methylpyrrolidin-3-yl)amino]-7-(4-methylpyridin-2-ylamino)-1H-pyrazolo[4,3-d]pyrimidine-3-carboxamide]: 420 pM.
